Values of other authors in patent US8686153B2, “Lenalidomide salts” (Synthon B.V., priority 2009, dated 2014).

solubility at pH 4.6, 6.8 and 7.4: 0.4-0.5 mg/ml
SMILES: Nc1cccc2c1CN(C1CCC(=O)NC1=O)C2=O (racemic) [Lenalidomide, 3-(4-amino-1-oxo-3H-isoindol-2-yl)piperidine-2,6-dione]
